Key:
[1] = Infrared of single crystals versus KBr pellets (phase transformation under pressure); format: physicochemical; settings: KBr pellets produced at 10,000 psi vs infrared microscopy of single crystals
Source text: The corresponding peaks in the new polymorph are found at 3474, 3149, 1674, 1394, 773, and 765 cm^−1. […] Significant differences in the IR spectra of two different polymorphs provide a fast, reliable method of polymorph characterization despite the fact that a hydrogen-bonded dimer is observed in the crystal structure of both polymorphs. […] Therefore, it is contemplated that this new form has good shelf life (kinetic trapping of the unstable form).

[2] = Differential scanning calorimetry of the new carbamazepine polymorph; format: physicochemical; settings: scan rate of 10° C./minute
[3] = room temperature; cited from earlier work
[4] = rat, in vivo; cited from earlier work
[5] = following a single oral dose, average; cited from earlier work
[6] = cited from earlier work

## NC(=O)N1c2ccccc2C=Cc2ccccc21 [new polymorph, carbamazepine]
[1]
  phase transformation under pressure: not taking place
[2]
  phase transitions by differential scanning calorimetry: absence of phase transitions below 184 °C

## NC(=O)N1c2ccccc2C=Cc2ccccc21 [trigonal form, carbamazepine]
[3]
  solid form stability in solvent: undergoes solvent-mediated conversion to the monoclinic crystal

## NC(=O)N1c2ccccc2C=Cc2ccccc21 [carbamazepine]
[4]
  long-term toxicity finding: potential carcinogenic risk
[5]
  elimination half-life of unchanged carbamazepine in the plasma: approximately 36 hours

## CC(=O)Nc1ccc(O)cc1 [orthorhombic polymorph, 4-acetamidophenol]
[6]
  solubility relative to the monoclinic form: more soluble

Reference: patent publication US7429238B2, “Systems and methods for the generation of crystalline polymorphs” (priority 2001, dated 2008)
